Source: the NIST ThermoML archive (doi:10.1021/je2000205)

Experiment: mn = molality of the nth substance listed, in mol/kg
Settings: 100 kPa, Liquid; for viscosity: Capillary tube (Ostwald / Ubbelohde) method; for speed of sound: Sing-around technique in a fixed-path interferometer; for mass density: Vibrating tube method

O=C[C@H](O)[C@@H](O)[C@H](O)[C@H](O)CO [D-glucose] + O
m1 = 1.13
Settings	mass density [kg/m3]	speed of sound [m/s]	viscosity [mPa·s]
298.15 K	1065.07	1564.8	1.489
303.15 K	1063.3	1574.3	1.278
308.15 K	1061.36	1582.4	1.147
313.15 K	1059.24	1589.1	0.9944
318.15 K	1056.98	1594.4	0.9095
323.15 K	1054.25	1598.5	0.8291

OC[C@H]1O[C@@](CO)(O[C@H]2O[C@H](CO)[C@@H](O)[C@H](O)[C@H]2O)[C@@H](O)[C@@H]1O [D-sucrose] + O
Settings	mass density, m1 = 1.27 [kg/m3]	speed of sound, m1 = 1.13 [m/s]	viscosity, m1 = 1.13 [mPa·s]
298.15 K	1127.37	1607.9	2.716
303.15 K	1125.37	1615.6	2.376
308.15 K	1123.2	1621.9	2.075
313.15 K	1120.73	1627	1.795
318.15 K	1118.18	1630.8	1.587
323.15 K	1115.44	1633.3	1.394
